Calls of active or inactive are those of the source. The calls are words filed in the database; no cut-off is given here.

inhibition, IC50 and Activity data for two compounds are collected here from ChEMBL document CHEMBL3421630, “Myxochelins target human 5-lipoxygenase” (J Nat Prod, 2015).

Experiment [1] has as its target T1, Polyunsaturated fatty acid 5-lipoxygenase (Homo sapiens) (UniProt P09917).
T1 sequence (whole entry): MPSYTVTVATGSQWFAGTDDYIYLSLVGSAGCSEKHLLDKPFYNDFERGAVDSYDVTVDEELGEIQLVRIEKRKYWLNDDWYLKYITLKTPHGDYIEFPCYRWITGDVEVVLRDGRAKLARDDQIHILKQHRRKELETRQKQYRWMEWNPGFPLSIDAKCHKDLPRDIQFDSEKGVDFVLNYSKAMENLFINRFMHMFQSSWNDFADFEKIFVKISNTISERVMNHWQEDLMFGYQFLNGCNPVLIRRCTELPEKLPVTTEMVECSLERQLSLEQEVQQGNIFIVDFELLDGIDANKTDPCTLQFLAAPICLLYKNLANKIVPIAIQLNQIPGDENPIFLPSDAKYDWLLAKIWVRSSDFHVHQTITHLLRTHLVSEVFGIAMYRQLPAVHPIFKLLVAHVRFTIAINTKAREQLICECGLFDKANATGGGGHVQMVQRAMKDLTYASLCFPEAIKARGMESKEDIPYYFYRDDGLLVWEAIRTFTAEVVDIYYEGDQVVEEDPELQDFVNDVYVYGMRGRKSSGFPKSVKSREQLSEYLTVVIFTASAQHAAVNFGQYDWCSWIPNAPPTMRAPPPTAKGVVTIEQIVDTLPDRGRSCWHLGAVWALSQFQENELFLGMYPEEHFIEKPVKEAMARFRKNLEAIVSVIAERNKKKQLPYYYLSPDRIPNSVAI
The settings on record: 3 uM.
Description: Inhibition of human recombinant 5-LOX expressed in Escherichia coli BL21 DE3 assessed as reduction in 5-LO product formation at 3 uM pre-incubated for 10 mins by RP-HPLC method

In experiment [2] the target is T1, Polyunsaturated fatty acid 5-lipoxygenase (Homo sapiens). Briefly: Inhibition of human recombinant 5-LOX expressed in Escherichia coli BL21 DE3 assessed as reduction in 5-LO product formation at 10 uM pre-incubated for 10 mins by RP-HPLC method.
Experiment [3] deals with T2, Prostaglandin E synthase (Homo sapiens) (UniProt O14684).
T2 sequence (whole entry): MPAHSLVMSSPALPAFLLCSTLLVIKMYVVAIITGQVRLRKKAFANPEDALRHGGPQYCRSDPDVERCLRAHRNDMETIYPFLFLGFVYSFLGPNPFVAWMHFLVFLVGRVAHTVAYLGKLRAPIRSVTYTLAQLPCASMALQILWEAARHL
Briefly: Inhibition of m-PGES1 in IL-1beta-induced human A549 cell microsomes assessed as reduction in […]PGE2 production up to 100 uM pre-incubated for 15 mins before PGH2 addition by UV detection based reverse-phase high-performance liquid chromatography.

Experiment [4] deals with T3, Polyunsaturated fatty acid 5-lipoxygenase (Homo sapiens, UniProt P09917).
T3 sequence (P09917 whole entry): T1 sequence (whole entry)
Briefly: (§1) Inhibition of human recombinant 5-LOX expressed in Escherichia coli BL21 DE3 assessed as reduction in 5-LO product formation pre-incubated for 10 mins by RP-HPLC method.

Experiment [5] has as its target T1, Polyunsaturated fatty acid 5-lipoxygenase (Homo sapiens). Described as §1.
In the next experiment the test system is HeLa. Briefly: Inhibition of cell proliferation of human HeLa cells after 72 hrs by methylene blue dye based assay. Format: functional.
In the next experiment the test system is K562. Briefly: Inhibition of cell proliferation of human K562 cells after 72 hrs by cell-titer-blue assay. The class given is functional, cell-based. The settings on record: K562, 72 h.
Experiment [6] is described as follows: Siderophore activity by chrome azurol S assay.

With `CC(c1cc2ccccc2s1)N(O)C(N)=O` (stereo not drawn), the inhibition result in experiment [1] is “Active”.
In the case of `O=C(NCCCC[C@@H](CO)NC(=O)c1cccc(O)c1O)c1cccc(O)c1O`, the inhibition entry in experiment [2] was “Active”. The inhibition entry in experiment [3] is “inactive”. Moreover, the results for the half-maximal inhibitory concentration (IC50) (in experiment [4]; with HeLa; in the experiment with K562) were 1.9 µM, 305 µM and 3.9 µM, respectively. Further, the inhibition entry in experiment [5] was “Dose-dependent effect”. The outcome in experiment [6] was Active.
